How the values were obtained:
Assay type in all cases: in vivo
corn (Zea mays) [1] = assay: Test G Post-Emergence Protocol; conditions: Zea mays, post-emergence, 312 h
How it was run: (§1)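 Damage was rated 13 days after treatment from 0 (none) to 100 (plant killed). Compound was applied as a spray at 15.625, 62.5 or 250 g/ha in 50:50 acetone/water containing 0.5% Tween 20, onto 8-day-old potted plants kept in a glasshouse (24/16 °C, 14 h light, 65% humidity).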

[2] = system: barnyardgrass (Echinochloa crus-galli); assay: Test G Post-Emergence Protocol; conditions: Echinochloa crus-galli, post-emergence, 312 h
How it was run: as §1

[3] = system: giant foxtail (Setaria faberi); assay: Test G Post-Emergence Protocol; conditions: Setaria faberi, post-emergence, 312 h
How it was run: as §1

[4] = system: velvetleaf (Abutilon theophrasti); assay: Test G Post-Emergence Protocol; conditions: Abutilon theophrasti, post-emergence, 312 h
How it was run: as §1

[5] = system: redroot pigweed (Amaranthus retroflexus); assay: Test G Post-Emergence Protocol; conditions: Amaranthus retroflexus, post-emergence, 312 h
How it was run: as §1

[6] = system: ivy-leaved morning glory (Ipomoea hederacea); assay: Test G Post-Emergence Protocol; conditions: Ipomoea, post-emergence, 312 h
How it was run: as §1

corn (Zea mays) [7] = assay: Test G Pre-Emergence Protocol; conditions: Zea mays, pre-emergence, 312 h, evaluated after 13 days
How it was run: (§2)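 Spraying took place one day after sowing, at 15.625, 62.5 or 250 g/ha, using an acetone/water (50:50) spray solution containing 0.5% Tween 20. Plants were kept under glasshouse conditions (24/16 °C, 14 h light, 65% humidity, watered twice daily), and injury was rated 0–100 at day 13.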

[8] = system: barnyardgrass (Echinochloa crus-galli); assay: Test G Pre-Emergence Protocol; conditions: Echinochloa crus-galli, pre-emergence, 312 h, evaluated after 13 days
How it was run: as §2

[9] = system: giant foxtail (Setaria faberi); assay: Test G Pre-Emergence Protocol; conditions: Setaria faberi, pre-emergence, 312 h, evaluated after 13 days
How it was run: as §2

[10] = system: velvetleaf (Abutilon theophrasti); assay: Test G Pre-Emergence Protocol; conditions: Abutilon theophrasti, pre-emergence, 312 h, evaluated after 13 days
How it was run: as §2

[11] = system: redroot pigweed (Amaranthus retroflexus); assay: Test G Pre-Emergence Protocol; conditions: Amaranthus retroflexus, pre-emergence, 312 h, evaluated after 13 days
How it was run: as §2

[12] = system: ivy-leaved morning glory (Ipomoea hederacea); assay: Test G Pre-Emergence Protocol; conditions: Ipomoea, pre-emergence, 312 h, evaluated after 13 days
How it was run: as §2

COC(=O)c1nccc(NC(=O)[C@@H]2C(=O)N(C)C[C@H]2c2ccc(C(F)(F)F)cc2)n1 (racemic) [Compound 1537]
0%: plant injury at 15.625 g/ha (corn (Zea mays) [1]; 15.625 g ai/ha, evaluated after 13 days (100=total damage to plant; 0=no damage to plant), read-out: Corn damage rating) | plant injury at 62.5 g/ha (corn (Zea mays) [1]; 62.5 g ai/ha, evaluated after 13 days, read-out: Corn damage rating (100=total damage to plant; 0=no damage to plant)) | plant injury at 250 g/ha (corn (Zea mays) [1]; 250 g ai/ha, evaluated after 13 days, read-out: damage to plant, Corn (100=total damage to plant; 0=no damage to plant)) | pest or weed control at 15.625 g/ha ([2]; 15.625 g ai/ha, evaluated after 13 days (100=total damage to plant; 0=no damage to plant), read-out: Barnyardgrass damage rating) | pest or weed control at 62.5 g/ha ([2]; 62.5 g ai/ha, evaluated after 13 days, read-out: Barnyardgrass damage rating (100=total damage to plant; 0=no damage to plant)) | pest or weed control at 250 g/ha ([2]; 250 g ai/ha, evaluated after 13 days, read-out: damage to plant, Barnyardgrass (100=total damage to plant; 0=no damage to plant)) | pest or weed control at 15.625 g/ha ([3]; 15.625 g ai/ha, evaluated after 13 days (100=total damage to plant; 0=no damage to plant), read-out: Foxtail, Giant damage rating) | pest or weed control at 62.5 g/ha ([3]; 62.5 g ai/ha, evaluated after 13 days, read-out: Foxtail, Giant damage rating (100=total damage to plant; 0=no damage to plant)) | pest or weed control at 250 g/ha ([3]; 250 g ai/ha, evaluated after 13 days, read-out: damage to plant, Foxtail, Giant (100=total damage to plant; 0=no damage to plant)) | pest or weed control at 15.625 g/ha ([4]; 15.625 g ai/ha, evaluated after 13 days (100=total damage to plant; 0=no damage to plant), read-out: Velvetleaf damage rating) | pest or weed control at 62.5 g/ha ([4]; 62.5 g ai/ha, evaluated after 13 days, read-out: Velvetleaf damage rating (100=total damage to plant; 0=no damage to plant)) | pest or weed control at 250 g/ha ([4]; 250 g ai/ha, evaluated after 13 days, read-out: damage to plant, Velvetleaf (100=total damage to plant; 0=no damage to plant)) | pest or weed control at 15.625 g/ha ([5]; 15.625 g ai/ha, evaluated after 13 days (100=total damage to plant; 0=no damage to plant), read-out: Pigweed, Redroot damage rating) | pest or weed control at 62.5 g/ha ([5]; 62.5 g ai/ha, evaluated after 13 days, read-out: Pigweed, Redroot damage rating (100=total damage to plant; 0=no damage to plant)) | pest or weed control at 250 g/ha ([5]; 250 g ai/ha, evaluated after 13 days, read-out: damage to plant, Pigweed, Redroot (100=total damage to plant; 0=no damage to plant)) | pest or weed control at 15.625 g/ha ([6]; 15.625 g ai/ha, evaluated after 13 days (100=total damage to plant; 0=no damage to plant), read-out: Morningglory, Ivy-leaved damage rating) | pest or weed control at 62.5 g/ha ([6]; 62.5 g ai/ha, evaluated after 13 days, read-out: Morningglory, Ivy-leaved damage rating (100=total damage to plant; 0=no damage to plant)) | pest or weed control at 250 g/ha ([6]; 250 g ai/ha, evaluated after 13 days, read-out: damage to plant, Morningglory, Ivy-leaved (100=total damage to plant; 0=no damage to plant)) | plant injury at 15.625 g/ha (corn (Zea mays) [7]; 15.625 g ai/ha, read-out: Corn damage rating (100=total damage to plant; 0=no damage to plant)) | plant injury at 62.5 g/ha (corn (Zea mays) [7]; 62.5 g ai/ha, 100=total damage to plant, 0=no damage to plant, read-out: plant damage rating, Corn) | plant injury at 250 g/ha (corn (Zea mays) [7]; 250 g ai/ha, read-out: Corn damage rating (100=total damage to plant; 0=no damage to plant)) | pest or weed control at 15.625 g/ha ([8]; 15.625 g ai/ha, read-out: Barnyard grass damage rating (100=total damage to plant; 0=no damage to plant)) | pest or weed control at 62.5 g/ha ([8]; 62.5 g ai/ha, 100=total damage to plant, 0=no damage to plant, read-out: plant damage rating, Barnyardgrass) | pest or weed control at 250 g/ha ([8]; 250 g ai/ha, read-out: Barnyardgrass damage rating (100=total damage to plant; 0=no damage to plant)) | pest or weed control at 15.625 g/ha ([9]; 15.625 g ai/ha, read-out: Foxtail, Giant damage rating (100=total damage to plant; 0=no damage to plant)) | pest or weed control at 62.5 g/ha ([9]; 62.5 g ai/ha, 100=total damage to plant, 0=no damage to plant, read-out: plant damage rating, Foxtail, Giant) | pest or weed control at 250 g/ha ([9]; 250 g ai/ha, read-out: Foxtail, Giant damage rating (100=total damage to plant; 0=no damage to plant)) | pest or weed control at 15.625 g/ha ([10]; 15.625 g ai/ha, read-out: Velvetleaf damage rating (100=total damage to plant; 0=no damage to plant)) | pest or weed control at 62.5 g/ha ([10]; 62.5 g ai/ha, 100=total damage to plant, 0=no damage to plant, read-out: plant damage rating, Velvetleaf) | pest or weed control at 250 g/ha ([10]; 250 g ai/ha, read-out: Velvetleaf damage rating (100=total damage to plant; 0=no damage to plant)) | pest or weed control at 15.625 g/ha ([11]; 15.625 g ai/ha, read-out: Pigweed, Redroot damage rating (100=total damage to plant; 0=no damage to plant)) | pest or weed control at 62.5 g/ha ([11]; 62.5 g ai/ha, 100=total damage to plant, 0=no damage to plant, read-out: plant damage rating, Pigweed, Redroot) | pest or weed control at 250 g/ha ([11]; 250 g ai/ha, read-out: Pigweed, Redroot damage rating (100=total damage to plant; 0=no damage to plant)) | pest or weed control at 15.625 g/ha ([12]; 15.625 g ai/ha, read-out: Morning-glory, Ivy-leaved damage rating (100=total damage to plant; 0=no damage to plant)) | pest or weed control at 62.5 g/ha ([12]; 62.5 g ai/ha, 100=total damage to plant, 0=no damage to plant, read-out: plant damage rating, Morningglory, Ivy-leaved) | pest or weed control at 250 g/ha ([12]; 250 g ai/ha, read-out: Morningglory, Ivy-leaved damage rating (100=total damage to plant; 0=no damage to plant))
